Our source for the GI50 and TGI values is PubChem BioAssay (NCI).

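Each compound was tested at five concentrations against cells in 96-well plates for 48 hours. GI50 marks 50% less growth. TGI marks complete inhibition of growth.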

What all share (test): NCI tumour cell line growth inhibition, 48 h
The subject of assay [1] is 786-0 renal.
For assay [2], the system named is COLO 205 colon.
Assay [3] relates to DU-145 prostate.
Assay [4] has as its system HCC-2998 colon.
Assay [5] concerns HCT-116 colon.
The test system of assay [6] is HOP-62 NSCLC.
In assay [7] the test system is LOX IMVI melanoma.
For assay [8], the system named is NCI-H460 lung.
Assay [9] concerns SNB-75 CNS.
Assay [10] concerns UACC-62 melanoma.

On to `Cn1c(C(=O)c2cccc3ccccc23)nc2ccccc21`, for which the GI50 in assay [1], in assay [2], in assay [3], in [4], in assay [5] and in assay [6] was over 100 µM in each case. For the same compound, the GI50 in assay [7] is over 100 µM; in assay [8], over 100 µM; in assay [9] it was 15.3 µM; in [10], over 100 µM. Also, the TGI in assay [1], in assay [2], in assay [3], in [4], in assay [5] and in assay [6] was over 100 µM each time. For the same compound, the TGI in assay [7], in assay [8], in assay [9] and in assay [10] was over 100 µM throughout.

On to `C[C@H]1CN(C2COC2)CCN1c1ccc(Nc2cc(-c3ccnc(N4CCn5c(cc6c5CC(C)(C)C6)C4=O)c3CO)cn(C)c2=O)nc1`, for which the GI50 in [1] was 19.5 µM; in assay [2], 27.1 µM; in assay [3], 45.9 µM; in assay [4] it was 49.9 µM; in assay [5], 38.4 µM; in assay [6] it was 39.1 µM. The GI50 is 29.8 µM in assay [7], 61.1 µM in assay [8], 15.5 µM in [9] and 23.2 µM in assay [10]. For the same compound, the TGI in [1], in assay [2], in [3], in assay [4], in [5] and in [6] was over 100 µM throughout. Besides, the TGI was over 100 µM in [7], over 100 µM in [8], over 100 µM in [9] and 82.3 µM in [10].

Consider `O=C1/C(=C/c2ccccc2O)N=C(c2ccccc2)N1c1cc(C(F)(F)F)ccc1Cl`, for which the GI50 in [1] was 18.3 µM; in [2], over 100 µM; in assay [3], 43.8 µM; in assay [4] it was over 100 µM; in assay [5], 25 µM; in [6], 15.9 µM. Further, the GI50 is 40.8 µM in [7], over 100 µM in assay [8], 18.1 µM in assay [9] and 69.3 µM in [10]. The TGI in [1] is 44.1 µM; in [2], over 100 µM; in [3] it was over 100 µM; in assay [4] it was over 100 µM; in assay [5] it was over 100 µM; in [6], 30.4 µM. Moreover, the TGI in [7] was over 100 µM; in assay [8] it was over 100 µM; in assay [9], 37.7 µM; in assay [10], over 100 µM.

Take `NCc1ccc(-c2nc(-c3ccc(Cl)c(O)c3)c(-c3ccncc3)[nH]2)cc1`: the GI50 in [1] is over 25 µM; in assay [2] it was over 25 µM; in [3], over 25 µM; in assay [4], over 25 µM; in assay [5] it was 15.9 µM; in assay [6], over 25 µM. In addition, the GI50 in assay [7] was 16.7 µM; in assay [8], over 25 µM; in assay [9], 4.1 µM; in [10], 2.53 µM. Moreover, the TGI in [1], in [2], in assay [3], in [4], in assay [5] and in [6] was over 25 µM in each case. Besides, the TGI in assay [7] is over 25 µM; in [8], over 25 µM; in [9], over 20 µM; in [10], over 25 µM.

As for `COc1ccc(-c2c3c(N)c4c(nc3nc3c2c(C)nn3-c2ccccc2)CCCC4)cc1`, the GI50 in assay [1] was 4.55 µM; in assay [2] it was 2.32 µM; in assay [3], 4.72 µM; in assay [4], 3.51 µM; in [5], 2.15 µM; in assay [6], 14.1 µM. Also, the GI50 was 12 µM in assay [7], 3.28 µM in assay [8], 14 µM in [9] and 13.7 µM in assay [10]. The TGI came to 17.5 µM in assay [1]; 5.91 µM in assay [2]; 16.4 µM in [3]; 12.7 µM in assay [4]; 5.48 µM in assay [5]; 29.3 µM in assay [6]. For the same compound, the TGI in assay [7] was determined as 27 µM; in [8], 11.3 µM; in assay [9] it was 31.8 µM; in assay [10], 27.9 µM.

Consider `c1ccc(CN2COc3c(ccc4c5c(ccc34)CN(Cc3ccccc3)CO5)C2)cc1`, for which the TGI in [1], in [2], in [3], in assay [4], in assay [5] and in assay [6] was over 100 µM in each case. Further, the TGI in assay [7], in assay [8], in assay [9] and in [10] was over 100 µM each time.

For `CN(C)c1nc(N)c(C#N)c(C#N)c1C#N`, the TGI in assay [1], in assay [2], in assay [3], in assay [4], in [5] and in [6] was over 10 µM each time. The TGI in assay [7], in assay [8], in [9] and in [10] was over 10 µM throughout.

Consider `CN(C)CCCn1c2c(c3cc4c(cc3c1=O)OCO4)C(=O)c1ccccc1-2`, for which the GI50 in assay [1] was 0.0131 µM; in assay [2], 7.61 µM; in assay [3] it was 3.08 µM; in [4] it was 0.121 µM; in assay [6] it was under 0.0318 µM; in [7], 0.0635 µM. The GI50 in [8] was 8.82 µM; in [9], 5.89 µM; in assay [10], 1.05 µM. For the same compound, the TGI in [1] is 1.96 µM; in [2], over 100 µM; in assay [3], over 27.5 µM; in [5], 0.384 µM; in [6], 1.43 µM; in assay [7], 0.557 µM. Also, the TGI in [8] is over 32.8 µM; in [9] it was 37.4 µM; in assay [10], 9.57 µM.
